Data taken from US20230143612A1 (Arbutus Biopharma Corporation, priority 2020, published 2023).

Target: PD-L1 His protein / PD-1 Fc protein (Homo sapiens, UniProt Q9NZQ7)
Experiment: HTRF Assay (PD-1/PD-L1 interaction)
Type: binding
Conditions: PD-L1 His 6 nM, PD-1 Fc 6 nM
Outline: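 Compounds tested from 20 μM down to 0.001 μM (3-fold) against 6 nM PD-L1 His and 6 nM PD-1 Fc, 15 min room temperature incubation. Detection after 1 h at room temperature with Tb cryptate anti-6HIS and XL665 anti-human IgG reagents (mixture at 0.35 nM and 6.7 nM), HTRF signal.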

Sequence of PD-L1 His protein / PD-1 Fc protein (Q9NZQ7 19-238 limits assumed): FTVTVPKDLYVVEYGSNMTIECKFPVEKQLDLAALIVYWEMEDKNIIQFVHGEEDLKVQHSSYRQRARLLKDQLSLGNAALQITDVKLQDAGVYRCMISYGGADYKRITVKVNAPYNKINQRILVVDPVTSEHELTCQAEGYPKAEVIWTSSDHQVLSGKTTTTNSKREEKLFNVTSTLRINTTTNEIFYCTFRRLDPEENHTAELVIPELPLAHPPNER

SMILES	IC50 [nM]
COc1nc(-c2cccc(-c3cccc(-c4ccn5c(=O)c(CN(C)C[C@@H]6CCC(=O)N6)cnc5c4)c3C)c2Cl)ccc1CN1CC(O)C1 [Example 55, (S)-8-(2′-Chloro-3′-(5-((3-hydroxyazetidin-1-yl)methyl)-6-methoxypyridin-2-yl)-2-methyl-[1,1′-biphenyl]-3-yl)-3-((methyl((5-oxopyrrolidin-2-yl)methyl)amino)methyl)-4H-pyrido[1,2-a]pyrimidin-4-one]	43
Cc1c(-c2ccn3c(=O)c(CNC[C@@H]4CCC(=O)N4)cnc3c2)cccc1-c1cccc(-c2ccc(CNC[C@@H]3CCC(=O)N3)c(F)n2)c1Cl [Example 57, 8-(2′-Chloro-3′-(6-fluoro-5-(((((S)-5-oxopyrrolidin-2-yl)methyl)amino)methyl)pyridin-2-yl)-2-methyl-[1,1′-biphenyl]-3-yl)-3-(((((S)-5-oxopyrrolidin-2-yl)methyl)amino)methyl)-4H-pyrido[1,2-a]pyrimidin-4-one]	3.1
COc1nc(-c2cccc(-c3cccc(-c4cc(=O)n5cc(CNC[C@@H]6CCC(=O)N6)ccc5n4)c3Cl)c2Cl)cnc1CNC[C@@H]1CCC(=O)N1 [Example 58, 2-(2,2′-Dichloro-3′-(6-methoxy-5-(((((S)-5-oxopyrrolidin-2-yl)methyl)amino)methyl)pyrazin-2-yl)-[1,1′-biphenyl]-3-yl)-7-(((((S)-5-oxopyrrolidin-2-yl)methyl)amino)methyl)-4H-pyrido[1,2-a]pyrimidin-4-one]	2.2
COc1nc(-c2cccc(-c3cccc(-c4cc(=O)n5cc(CNC[C@@H]6CCC(=O)N6)ccc5n4)c3Cl)c2Cl)ccc1CNC[C@@H]1CCC(=O)N1 [Example 59, 2-(2,2′-Dichloro-3′-(6-methoxy-5-(((((S)-5-oxopyrrolidin-2-yl)methyl)amino)methyl)pyridin-2-yl)-[1,1′-biphenyl]-3-yl)-7-(((((S)-5-oxopyrrolidin-2-yl)methyl)amino)methyl)-4H-pyrido[1,2-a]pyrimidin-4-one]	2.9
O=C1CC[C@@H](CNCc2ccc3nc(-c4cccc(-c5cccc(-c6cc(=O)n7cc(CNC[C@@H]8CCC(=O)N8)ccc7n6)c5Cl)c4Cl)cc(=O)n3c2)N1 [Example 60, 2,2′-(2,2′-Dichloro-[1,1′-biphenyl]-3,3′-diyl)bis(7-(((((S)-5-oxopyrrolidin-2-yl)methyl)amino)methyl)-4H-pyrido[1,2-a]pyrimidin-4-one)]	460
Cc1c(-c2ccn3c(=O)c(CNC[C@@H]4CCC(=O)N4)cnc3c2)cccc1-c1cccc(-c2ccc(CNC[C@@H]3CCC(=O)N3)cn2)c1Cl [Example 61, 8-(2′-Chloro-2-methyl-3′-(5-(((((S)-5-oxopyrrolidin-2-yl)methyl)amino)methyl)pyridin-2-yl)-[1,1′-biphenyl]-3-yl)-3-(((((S)-5-oxopyrrolidin-2-yl)methyl)amino)methyl)-4H-pyrido[1,2-a]pyrimidin-4-one]	16
Cc1c(-c2ccn3c(=O)c(CNC4CNC(=O)C4)cnc3c2)cccc1-c1cccc(-c2ccc(CNC[C@@H]3CCC(=O)N3)c(F)n2)c1Cl (stereo partly drawn) [Example 62, 8-(2′-Chloro-3′-(6-fluoro-5-(((((S)-5-oxopyrrolidin-2-yl)methyl)amino)methyl)pyridin-2-yl)-2-methyl-[1,1′-biphenyl]-3-yl)-3-(((5-oxopyrrolidin-3-yl)amino)methyl)-4H-pyrido[1,2-a]pyrimidin-4-one]	19
Cc1c(-c2ccn3c(=O)c(CNC[C@@H]4CCC(=O)N4)cnc3c2)cccc1-c1cccc(-c2ccc(CNC[C@@H]3CCC(=O)N3)c(N(C)C)n2)c1Cl [Example 64, 8-(2′-Chloro-3′-(6-(dimethylamino)-5-(((((S)-5-oxopyrrolidin-2-yl)methyl)amino)methyl)pyridin-2-yl)-2-methyl-[1,1′-biphenyl]-3-yl)-3-(((((S)-5-oxopyrrolidin-2-yl)methyl)amino)methyl)-4H-pyrido[1,2-a]pyrimidin-4-one]	37
Cc1c(-c2ccn3c(=O)c(CNC[C@@H]4CCC(=O)N4)cnc3c2)cccc1-c1cccc(-c2ccc(CNC[C@@H]3CCC(=O)N3)cc2)c1Cl [Example 65, 8-(2′-Chloro-2-methyl-4″-(((((S)-5-oxopyrrolidin-2-yl)methyl)amino)methyl)-[1,1′:3′,1″-terphenyl]-3-yl)-3-(((((S)-5-oxopyrrolidin-2-yl)methyl)amino)methyl)-4H-pyrido[1,2-a]pyrimidin-4-one]	5.6
COc1cc(-c2cccc(-c3cccc(-c4ccn5c(=O)c(CNC[C@@H]6CCC(=O)N6)cnc5c4)c3C)c2Cl)ccc1CNC[C@@H]1CCC(=O)N1 [Example 66, 8-(2′-Chloro-3″-methoxy-2-methyl-4″-(((((S)-5-oxopyrrolidin-2-yl)methyl)amino)methyl)-[1,1′:3′,1″-terphenyl]-3-yl)-3-(((((S)-5-oxopyrrolidin-2-yl)methyl)amino)methyl)-4H-pyrido[1,2-a]pyrimidin-4-one]	5.2
Cc1c(-c2ccn3c(=O)c(CNC[C@@H]4CCC(=O)N4)cnc3c2)cccc1-c1cccc(-c2ccc(CNC[C@@H]3CCC(=O)N3)c(Cl)c2)c1Cl [Example 67, 8-(2′,3″-Dichloro-2-methyl-4″-(((((S)-5-oxopyrrolidin-2-yl)methyl)amino)methyl)-[1,1′:3′,1″-terphenyl]-3-yl)-3-(((((S)-5-oxopyrrolidin-2-yl)methyl)amino)methyl)-4H-pyrido[1,2-a]pyrimidin-4-one]	3.5
COc1nc(-c2cccc(-c3cccc(-c4ccn5c(=O)c(CNCCNC(C)=O)cnc5c4)c3Cl)c2Cl)ccc1CNCCNC(C)=O [Example 69, N-(2-(((6-(3′-(3-(((2-Acetamidoethyl)amino)methyl)-4-oxo-4H-pyrido[1,2-a]pyrimidin-8-yl)-2,2′-dichloro-[1,1′-biphenyl]-3-yl)-2-methoxypyridin-3-yl)methyl)amino)ethyl)acetamide]	1.9
COc1nc(-c2cccc(-c3cccc(-c4ccn5c(=O)c(CN6CC7(CNC(=O)C7)C6)cnc5c4)c3Cl)c2Cl)ccc1CN1CC2(CNC(=O)C2)C1 [Example 70, 8-(2,2′-Dichloro-3′-(6-methoxy-5-((7-oxo-2,6-diazaspiro[3.4]octan-2-yl)methyl)pyridin-2-yl)-[1,1′-biphenyl]-3-yl)-3-((7-oxo-2,6-diazaspiro[3.4]octan-2-yl)methyl)-4H-pyrido[1,2-a]pyrimidin-4-one]	7.1
COc1nc(-c2cccc(-c3cccc(-c4ccn5c(=O)c(CNC[C@@H]6CCC(=O)N6)cnc5c4)c3Cl)c2Cl)cnc1N1CC(N)C1 [Example 71, (S)-8-(3′-(5-(3-Aminoazetidin-1-yl)-6-methoxypyrazin-2-yl)-2,2′-dichloro-[1,1′-biphenyl]-3-yl)-3-((((5-oxopyrrolidin-2-yl)methyl)amino)methyl)-4H-pyrido[1,2-a]pyrimidin-4-one]	2
CCOc1nc(-c2cccc(-c3cccc(-c4ccn5c(=O)c(CNC[C@@H]6CCC(=O)N6)cnc5c4)c3C)c2Cl)ccc1CNC[C@@H]1CCC(=O)N1 [Example 72, 8-(2′-Chloro-3′-(6-ethoxy-5-(((((S)-5-oxopyrrolidin-2-yl)methyl)amino)methyl)pyridin-2-yl)-2-methyl-[1,1′-biphenyl]-3-yl)-3-(((((S)-5-oxopyrrolidin-2-yl)methyl)amino)methyl)-4H-pyrido[1,2-a]pyrimidin-4-one]	9.4
CNc1nc(-c2cccc(-c3cccc(-c4ccn5c(=O)c(CNC[C@@H]6CCC(=O)N6)cnc5c4)c3C)c2Cl)ccc1CNC[C@@H]1CCC(=O)N1 [Example 73, 8-(2′-Chloro-2-methyl-3′-(6-(methylamino)-5-(((((S)-5-oxopyrrolidin-2-yl)methyl)amino)methyl)pyridin-2-yl)-[1,1′-biphenyl]-3-yl)-3-(((((S)-5-oxopyrrolidin-2-yl)methyl)amino)methyl)-4H-pyrido[1,2-a]pyrimidin-4-one]	6.3
CCNc1nc(-c2cccc(-c3cccc(-c4ccn5c(=O)c(CNC[C@@H]6CCC(=O)N6)cnc5c4)c3C)c2Cl)ccc1CNC[C@@H]1CCC(=O)N1 [Example 74, 8-(2′-Chloro-3′-(6-(ethylamino)-5-(((((S)-5-oxopyrrolidin-2-yl)methyl)amino)methyl)pyridin-2-yl)-2-methyl-[1,1′-biphenyl]-3-yl)-3-(((((S)-5-oxopyrrolidin-2-yl)methyl)amino)methyl)-4H-pyrido[1,2-a]pyrimidin-4-one]	15
COc1nc(-c2cccc(-c3cccc(-c4ccn5c(=O)c(CNCCO)cnc5c4)c3Cl)c2Cl)ccc1CNCCO [Example 75, 8-(2,2′-Dichloro-3′-(5-(((2-hydroxyethyl)amino)methyl)-6-methoxypyridin-2-yl)-[1,1′-biphenyl]-3-yl)-3-(((2-hydroxyethyl)amino)methyl)-4H-pyrido[1,2-a]pyrimidin-4-one]	3.4
Cc1c(-c2ccn3c(=O)c(CNC[C@@H]4CCC(=O)N4)cnc3c2)cccc1-c1cccc(-c2ccc3c(c2)CCC3NC[C@@H]2CCC(=O)N2)c1Cl (stereo partly drawn) [Example 76, 8-(2′-Chloro-2-methyl-3′-(1-((((S)-5-oxopyrrolidin-2-yl)methyl)amino)-2,3-dihydro-1H-inden-5-yl)-[1,1′-biphenyl]-3-yl)-3-(((((S)-5-oxopyrrolidin-2-yl)methyl)amino)methyl)-4H-pyrido[1,2-a]pyrimidin-4-one]	3.4
COc1cc(-c2cccc(-c3cccc(-c4ccn5c(=O)c(CNC[C@@H]6CCC(=O)N6)cnc5c4)c3C)c2Cl)ncc1CNC[C@@H]1CCC(=O)N1 [Example 77, 8-[3-[2-Chloro-3-[4-methoxy-5-[[[(2S)-5-oxopyrrolidin-2-yl]methylamino]methyl]-2-pyridyl]phenyl]-2-methyl-phenyl]-3-[[[(2S)-5-oxopyrrolidin-2-yl]methylamino]methyl]pyrido[1,2-a]pyrimidin-4-one]	6.3
